Columns and labels:
RAW 264.7 cells [1] = test: Immunofluorescence microscopy for Beclin 1 and LC3; type: cell-based, mouse
Experimental: The cells were fixed and permeabilized as described previously, followed by extensive washing and primary antibody staining (1:100 dilution) for 1 h at 4° C. in the dark. The primary antibody was specific for LC3 (4108, Cell Signaling Technology), Beclin 1 (ab55878, Abcam), TLR4 (14-9924, eBioscience), TLR9 (ab17236, abcam), MyD88 (ab2068, abcam), TRAF6 (ab33915, abcam), phosphorylated NF-κB (3033, Cell Signaling Technology) or IRF3 (sc-15991, Santa Cruz Biotechnology). After washing, the cells were incubated with the goat anti-mouse antibody conjugated with Alexa 488 (for TLR9, Invitrogen), goat anti-rabbit antibody conjugated with Alexa 488 (for LC3, MyD88, TRAF6 and NF-κB, Invitrogen) or donkey anti-goat IgG conjugated with Dylight 488 (for IRF3, Jackson ImmunoResearch) for 1 h at 4° C. in the dark. After washing, the cells were counterstained with 4,6-diamidino-2-phenylindole (DAPI, Vector Labs) and visualized with a confocal microscope (Nikon TE2000 equipped with the confocal upgrade laser kit). Fifty to one hundred cells in the images for LC3 were counted for quantification of LC3+ cells.
Beclin 1 and LC3 are two key proteins associated with the autophagy pathway and are common indicators of autophagy induction. […]

RAW264.7 = test: Cell morphology and vacuoles under phase contrast microscope after GO treatment; type: cell-based, mouse; conditions: LPS 10 μg/ml, 24 h
Experimental: The mouse macrophage cell line RAW264.7 was maintained in Dulbecco's modified Eagles medium (DMEM, Gibco) containing 10% fetal bovine serum (FBS, Gibco) and subcultured upon 70-80% confluency. For GO treatment, the cells were seeded to 6-well plates (3×10^5 cells/cm^2) overnight and cultured using the medium supplemented with GO at final concentrations of 5 or 100 μg/ml for 24 h. In parallel, the cells were treated with LPS (10 μg/ml, Sigma) for 24 h as the positive control. After the treatment, the cell morphology and vacuoles were observed under the phase contrast microscope.
To examine how GO nanosheets influenced the macrophage, RAW 264.7 cells were incubated with small GO at either 5 μg/ml (designated as GO5 group) or 100 μg/ml (designated as GO100 group) for 24 h.

RAW 264.7 cells [2] = test: Cell death and TUNEL apoptosis of treated macrophages; type: cell-based; conditions: LPS 10 μg/ml
RAW 264.7 cells [3] = test: Transmission electron microscopy of autophagic vacuoles; type: cell-based, mouse; conditions: LPS 10 μg/ml
Experimental: The cells were harvested, centrifuged (215×g, 10 min), washed with cold PBS and fixed with 2.5% glutaraldehyde (in 0.2 M sodium cacodylate, pH 7.4). The samples were then fixed in 1% OsO4 for 1 h at 4° C., dehydrated with increasing concentrations of ethanol, embedded in spur resin and sectioned. The ultrathin sections were stained with uranyl acetate and observed under the TEM.

RAW 264.7 cells [4] = test: ELISA of cytokines in supernatant of treated macrophage cells; type: cell-based, mouse; conditions: LPS
Experimental: At 24 h post-treatment, the supernatant was collected from the GO-treated cell culture and analyzed using ELISA kits specific for mouse IL-2, IL-10, TNF-α, IFN-β and IFN-γ. The cells were lysed for Western blot using primary antibodies (1:1000 dilution) specific for LC3, Beclin 1 or β-actin (A-2066, Sigma) and the secondary antibody was HRP-conjugated IgG (1:5000 dilution, Amersham Biosciences). The images were developed using the GeneGnome HR scanner (Syngene).

**Q.** `Cn1cnc(N)c2ncnc1-2` [3-MA, 3-methyl adenine] was tested. Which “GO100-triggered formation of LC3+ aggregate dots” value (RAW 264.7 cells [1]; pre-treatment of cells with the autophagy inhibitor) did it give?
**A.** diminished the GO100-triggered formation of LC3+ aggregate dots

**Q.** Which results are given for lipopolysaccharides [LPS]?
**A.** formation of vacuoles inside the cells (RAW264.7): also observed in the LPS-treated cells; cell death (RAW 264.7 cells [2]): also observed in the LPS-treated cells; autophagic vacuoles (AV) by TEM (RAW 264.7 cells [3]): triggered more prominent AV; Beclin 1 and LC3 dots by immunofluorescence (RAW 264.7 cells [1]; LPS-treated cells): also observed in the LPS-treated cells; cytokine secretion (RAW 264.7 cells [4]): cytokine secretion triggered by LPS

Source: patent publication US20150157659A1, “METHOD OF INDUCING AUTOPHAGY AND ACTIVATING TOLL-LIKE RECEPTOR” (National Tsing Hua University, priority 2013, published 2015)
